According to patent publication US5906920A, “Methods for the detection of ligands for retinoid X receptors” (The Salk Institute for Biological Studies, priority 1995, dated 1999):

System: GST-RXR197-462 interaction with in vitro translated TBP
Test: GST pull-down RXR-TBP interaction assay in vitro
Assay type: binding, human
Conditions: 1.0 μM 9-cis retinoic acid in all buffers; quantitated by phosphorimaging
From the text: GST-RXR197-462 was constructed by PCR amplification of the appropriate sequences from human RXRα. The amplification products were cloned into EcoRI-BamHI digested pGEX2TK. All PCR-derived constructs were verified by sequencing. The plasmid pGEX-TBP was the kind gift of Dr. I. Verma (Salk Institute; see Kerr et al., in Nature 365:412-419 (1993)). Mammalian expression constructs expressing the ligand biding domains of human RXRα, human RARα and human TRβ have been described elsewhere (Forman et al., Cell 81:541-550 (1995)).
GST-fusion proteins were induced, solubilized and bound to glutathione beads following the manufacturer's procedures (LKB-Pharmacia). After binding to glutathione beads, 15 μl of the suspension was incubated with 1 to 2 μl of the appropriate ^35 S-labeled in vitro translated protein for 1 hour in 500 μl of NETN (20 mM Tris-HC1, pH 7.5, 100 mM KC1, 0.7 mM EDTA, 0.5% NP40, 1 mM PMSF). Following incubation, the beads were washed three times with NETN. […]
Thus GST pull-down experiments were carried out as follows. TBP was in vitro transcribed and translated as described above, and incubated with equal amounts of immobilized GST-RXR197-462 or GST-RXR-E453K/E456K) as determined by coomassie stained gels. […] Little or no interaction between TBP and GST alone is detected under these conditions.

CC1=C(/C=C/C(C)=C\C=C\C(C)=C\C(=O)O)C(C)(C)CCC1 [9-cis retinoic acid]
stimulation of the RXR-TBP interaction in vitro by addition of ligand: 3-5 fold
